The text below walks through data of patent US11098010B2 (priority 2017, dated 2021).

Where a name gives a salt, the structure may show the parent alone. Read-outs that look alike come from different tables or passages of the source.

This assay relates to HBV rcDNA in HepDE19 cells. The assay is described as follows: HepDE19 assay with bDNA quantitation of HBV rcDNA. The format is cell-based, hepatitis B virus (HBV).
[1] abbreviates: Hepatitis B virus, HepDE19, 168 h, read-out: DE-19 bDNA EC50 (μM), HepDE19 cells, inhibition of rcDNA formation, 7 day incubation, top concentration 25 μM.
[2] abbreviates: HepDE19 cells, inhibition of rcDNA formation, 7 day incubation, top concentration 25 μM, read-out: DE-19 bDNA EC50.
Setting [3] is: Hepatitis B virus, HepDE19, 168 h, HepDE19 cells, inhibition of rcDNA formation, 7 day incubation, top concentration 25 μM, read-out: DE-19 bDNA EC50.
Setting [4] is: read-out: DE-19 bDNA EC50, HepDE19 cells, inhibition of rcDNA formation, 7 day incubation, top concentration 25 μM.

For the compound `N#Cc1ccc(COC(=O)N[C@H]2CCc3c(C(=O)Nc4ccc(F)c(Cl)c4)ccc(F)c32)nc1` [Compound 172, O-(5-Cyanopyridin-2-yl)methyl, N—(S)-(4-((3-chloro-4-fluorophenyl)carbamoyl)-7-fluoro-2,3-dihydro-1H-inden-1-yl) carbamate], under setting [1], the EC50 turned out to be 0.19 µM.

On to `Cc1nccnc1COC(=O)N[C@H]1CCc2c(C(=O)Nc3ccc(F)c(Cl)c3)ccc(F)c21` [Compound 173, O-(3-Methylpyrazin-2-yl)methyl, N—(S)-(4-((3-chloro-4-fluorophenyl)carbamoyl)-7-fluoro-2,3-dihydro-1H-inden-1-yl) carbamate], for which the EC50 under setting [1] amounted to 0.12 µM.

With `CC(=O)N1CCC(COC(=O)N[C@H]2CCc3c(C(=O)Nc4ccc(F)c(Cl)c4)ccc(F)c32)CC1` [Compound 174, O-(1-Acetylpiperidin-4-yl)methyl, N—(S)-(4-((3-chloro-4-fluorophenyl)carbamoyl)-7-fluoro-2,3-dihydro-1H-inden-1-yl) carbamate], under setting [1], the EC50 was found to be 0.87 µM.

With `O=C(N[C@H]1CCc2c(C(=O)Nc3ccc(F)c(Cl)c3)ccc(F)c21)OCC1CCN(C(=O)CO)CC1` [Compound 175, O-(1-(2-Hydroxyacetyl)piperidin-4-yl)methyl, N—(S)-(4-((3-chloro-4-fluorophenyl)carbamoyl)-7-fluoro-2,3-dihydro-1H-inden-1-yl) carbamate], under setting [1], the EC50 was 0.96 µM.

Consider `CNC(=O)N1CCC(COC(=O)N[C@H]2CCc3c(C(=O)Nc4ccc(F)c(Cl)c4)ccc(F)c32)CC1` [Compound 176, O-(1-(Methylcarbamoyl)piperidin-4-yl)methyl, N—(S)-(4-((3-chloro-4-fluorophenyl)carbamoyl)-7-fluoro-2,3-dihydro-1H-inden-1-yl) carbamate], for which the EC50 under setting [1] was 0.64 µM.

Take `O=C(N[C@H]1CCc2c(C(=O)Nc3ccc(F)c(Cl)c3)ccc(F)c21)OCC1CS(=O)(=O)CCN1` (stereo partly drawn) [Compound 177, O-(1,1-Dioxidothiomorpholin-3-yl)methyl, N—((S)-4-((3-chloro-4-fluorophenyl)carbamoyl)-7-fluoro-2,3-dihydro-1H-inden-1-yl) carbamate Hydrochloride]: the EC50 under setting [1] turned out to be 0.5 µM.

In the case of `CO[C@@H]1Cc2c(C(=O)Nc3ccc(F)c(Cl)c3)ccc(F)c2[C@H]1NC(=O)OCc1ccccn1` [Compound 178, O-Pyridin-2-ylmethyl, N-((1R,2R)-4-((3-chloro-4-fluorophenyl)carbamoyl)-7-fluoro-2-methoxy-2,3-dihydro-1H-inden-1-yl) carbamate], under setting [2], the EC50 was 0.04 µM.

In the case of `O=C(Nc1ccc(F)c(Cl)c1)c1ccc(F)c2c1CC[C@@H]2NC(=O)C1CC1` [Compound 179, (S)—N-(3-Chloro-4-fluorophenyl)-1-(cyclopropanecarboxamido)-7-fluoro-2,3-dihydro-1H-indene-4-carboxamide], under setting [3], the EC50 came to 0.14 µM.

`O=C(N[C@H]1CCc2c(C(=O)Nc3ccc(F)c(Cl)c3)ccc(F)c21)OC[C@@H]1COCCN1` [Compound 180, O—((S)-Morpholin-3-yl)methyl, N—((S)-4-((3-chloro-4-fluorophenyl)carbamoyl)-7-fluoro-2,3-dihydro-1H-inden-1-yl) carbamate Hydrochloride]: under setting [1], the EC50 was 0.2 µM.

`O=C(N[C@H]1CCc2c(C(=O)Nc3ccc(F)c(Cl)c3)ccc(F)c21)O[C@H]1CCOC1` [Compound 181, O—(S)-Tetrahydrofuran-3-yl, N—((S)-4-((3-chloro-4-fluorophenyl)carbamoyl)-7-fluoro-2,3-dihydro-1H-inden-1-yl) carbamate]: the EC50 under setting [3] stood at 0.15 µM.

As for `COCCS(=O)(=O)N[C@H]1CCc2c(C(=O)Nc3ccc(F)c(Cl)c3)ccc(F)c21` [Compound 182, (S)—N-(3-Chloro-4-fluorophenyl)-7-fluoro-1-((2-methoxyethyl)sulfonamido)-2,3-dihydro-1H-indene-4-carboxamide], the EC50 under setting [3] worked out at 0.59 µM.

Regarding `O=C(Nc1ccc(F)c(Cl)c1)c1ccc(F)c2c1CC[C@@H]2NS(=O)(=O)c1ccccc1` [Compound 183, (S)—N-(3-Chloro-4-fluorophenyl)-7-fluoro-1-(phenylsulfonamido)-2,3-dihydro-1H-indene-4-carboxamide], under setting [1], the EC50 was 0.65 µM.

Consider `O=C(Nc1ccc(F)c(Cl)c1)c1ccc(F)c2c1CC[C@@H]2NS(=O)(=O)c1ccccn1` [Compound 184, (S)—N-(3-Chloro-4-fluorophenyl)-7-fluoro-1-(pyridine-2-sulfonamido)-2,3-dihydro-1H-indene-4-carboxamide Hydrochloride], for which the EC50 under setting [1] is 0.66 µM.

Take `COCC(=O)N1CCC(COC(=O)N[C@H]2CCc3c(C(=O)Nc4ccc(F)c(Cl)c4)ccc(F)c32)CC1` [Compound 185, O-(1-(2-Methoxyacetyl)piperidin-4-yl)methyl, N—(S)-(4-((3-chloro-4-fluorophenyl)carbamoyl)-7-fluoro-2,3-dihydro-1H-inden-1-yl) carbamate]: the EC50 under setting [1] came to 0.37 µM.

For `O=C(Nc1ccc(F)c(Cl)c1)c1ccc(F)c2c1CC[C@@H]2Nc1ncc(O)cn1` [Compound 186, (S)-N-(3-chloro-4-fluorophenyl)-7-fluoro-1-((5-hydroxypyrimidin-2-yl)amino)-2,3-dihydro-1H-indene-4-carboxamide], the EC50 under setting [3] was found to be 1.6 µM.

On to `COC(=O)NC1COc2c(C(=O)Nc3ccc(F)c(Cl)c3)ccc(F)c21` (stereo not drawn) [Compound 187, O-Methyl, N-(7-((3-chloro-4-fluorophenyl)carbamoyl)-4-fluoro-2,3-dihydrobenzofuran-3-yl) carbamate], for which the EC50 under setting [4] worked out at 23 µM.

On to `COC(=O)NC1COc2c(C(=O)Nc3ccc(F)c(Cl)c3)ccc(F)c21` (stereo not drawn) [Compound 188, O-Methyl, N-(7-((3-chloro-4-fluorophenyl)carbamoyl)-4-fluoro-2,3-dihydrobenzofuran-3-yl) carbamate], for which, under setting [4], the EC50 is 5.3 µM.

As to `O=C(N[C@H]1CCc2c(C(=O)Nc3ccc(F)c(Cl)c3)ccc(F)c21)OCc1cc[nH]n1` [Compound 193, O-(1H-Pyrazol-3-yl)methyl, N—(S)-(4-((3-chloro-4-fluorophenyl)carbamoyl)-7-fluoro-2,3-dihydro-1H-inden-1-yl) carbamate], under setting [1], the EC50 was 0.06 µM.

Regarding `Cn1ccc(CNC(=O)N[C@H]2CCc3c(C(=O)Nc4ccc(F)c(Cl)c4)ccc(F)c32)n1` [Compound 194], under setting [1], the EC50 stood at 0.16 µM.

As to `O=C(N[C@H]1CCc2c(C(=O)Nc3ccc(F)c(Cl)c3)ccc(F)c21)OCc1nc[nH]n1` [Compound 195, O-(1H-1,2,4-Triazol-3-yl)methyl, N—(S)-(4-((3-chloro-4-fluorophenyl)carbamoyl)-7-fluoro-2,3-dihydro-1H-inden-1-yl) carbamate], the EC50 under setting [3] was 0.1 µM.

In the case of `O=C(Nc1ccc(F)c(Cl)c1)c1ccc(F)c2c1CC[C@@H]2Nc1ccncn1` [Compound 196, (S)—N-(3-Chloro-4-fluorophenyl)-7-fluoro-1-(pyrimidin-4-ylamino)-2,3-dihydro-1H-indene-4-carboxamide], the EC50 under setting [1] amounted to 0.63 µM.

Regarding `COc1ccc(Cn2ccc3cnc(N[C@H]4CCc5c(C(=O)Nc6ccc(F)c(Cl)c6)ccc(F)c54)nc32)cc1` [Compound 197, (S)—N-(3-Chloro-4-fluorophenyl)-7-fluoro-1-((7-(4-methoxybenzyl)-7H-pyrrolo[2,3-d]pyrimidin-2-yl)amino)-2,3-dihydro-1H-indene-4-carboxamide], the EC50 under setting [1] stood at 1.2 µM.

Regarding `O=C1CCC[C@H](COC(=O)N[C@H]2CCc3c(C(=O)Nc4ccc(F)c(Cl)c4)ccc(F)c32)N1` [Compound 198, O—((R)-6-Oxopiperidin-2-yl)methyl, N—((S)-4-((3-chloro-4-fluorophenyl)carbamoyl)-7-fluoro-2,3-dihydro-1H-inden-1-yl) carbamate], the EC50 under setting [1] was found to be 0.22 µM.

Regarding `O=C1CC[C@@H](OC(=O)N[C@H]2CCc3c(C(=O)Nc4ccc(F)c(Cl)c4)ccc(F)c32)CN1` [Compound 199, O—(R)-6-Oxopiperidin-3-yl, N—((S)-4-((3-chloro-4-fluorophenyl)carbamoyl)-7-fluoro-2,3-dihydro-1H-inden-1-yl)carbamate], the EC50 under setting [3] came to 0.25 µM.

Turning to `O=C1CC[C@H](OC(=O)N[C@H]2CCc3c(C(=O)Nc4ccc(F)c(Cl)c4)ccc(F)c32)CN1` [Compound 200, O—(S)-6-Oxopiperidin-3-yl, N—((S)-4-((3-chloro-4-fluorophenyl)carbamoyl)-7-fluoro-2,3-dihydro-1H-inden-1-yl) carbamate], the EC50 under setting [3] is 0.43 µM.

As for `COC(=O)NC1COc2c(C(=O)Nc3ccc(F)c(C)c3)ccc(F)c21` (stereo not drawn) [Compound 201, O-Methyl, N-(4-fluoro-7-((4-fluoro-3-methylphenyl)carbamoyl)-2,3-dihydrobenzofuran-3-yl) carbamate], the EC50 under setting [4] is 5.5 µM.

As to `COC(=O)NC1COc2c(C(=O)Nc3ccc(F)c(C)c3)ccc(F)c21` (stereo not drawn) [Compound 202, O-Methyl, N-(4-fluoro-7-((4-fluoro-3-methylphenyl)carbamoyl)-2,3-dihydrobenzofuran-3-yl) carbamate], under setting [4], the EC50 is 0.42 µM.

In the case of `Cc1cc(NC(=O)c2ccc(F)c3c2OCC3NC(=O)OCc2ccccn2)ccc1F` (stereo not drawn) [Compound 205, O-Pyridin-2-ylmethyl, N-(4-fluoro-7-((4-fluoro-3-methylphenyl)carbamoyl)-2,3-dihydrobenzofuran-3-yl) carbamate], under setting [3], the EC50 is 3.7 µM.

For `O=C(NC1CC1)N[C@H]1CCc2c(C(=O)Nc3ccc(F)c(Cl)c3)ccc(F)c21` [Compound 209, (S)—N-(3-Chloro-4-fluorophenyl)-1-(3-cyclopropylureido)-7-fluoro-2,3-dihydro-1H-indene-4-carboxamide], the EC50 under setting [3] is 0.33 µM.

As for `COC(=O)NC1c2c(F)ccc(C(=O)Nc3ccc(F)c(Cl)c3)c2CC1(F)F` (stereo not drawn) [Compound 210, O-methyl, N-((4-((3-chloro-4-fluorophenyl)carbamoyl)-2,2,7-trifluoro-2,3-dihydro-1H-inden-1-yl) carbamate], the EC50 under setting [2] came to 15 µM.
